The numbers were not newly measured in US20050118235A1, “Dietary non-essential amino acid tyrosine regulates the body weight of animals through regulating the animal appetite or food intake” (priority 2003, published 2005), which cites them from elsewhere.

The data set relates to activity anorexia in mice. The conditions noted are these: tyrosine injection, activity anorexia in mice (Avraham et al. 2001).

Molecules are shown by their SMILES.

Turning to `N[C@@H](Cc1ccc(O)cc1)C(=O)O` [Tyrosine], the “effect on appetite, cognition and exercise tolerance” value was “improves appetite, cognition, and exercise tolerance”.
